Source: PubChem BioAssay AID1963983 (Molecular Pharmacology Branch, DTP, NCI, 2024)

Test system: 186277-243-T-J2-PDC multi-cell spheroid viability
Assay: Anticancer human tumor 186277-243-T-J2-PDC patient-derived colon adenocarcinoma cell line growth inhibition [PI3K]
Conditions: for IC50: curve of first compound; for viability, T/C: stronger effect = lower value
Procedure, shortened: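 Complex 3D spheroids (cancer cells + endothelial HUVEC + mesenchymal stem cells); drug pairs of targeted agent x inavolisib/alpelisib/duvelisib/copanlisib; half-log series from ~Cmax, max 10 microM if Cmax unknown; endpoint viability.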

[1] = second compound 0.0316 µM, first compound 0.0316 µM
[2] = second compound 0.0316 µM, first compound 0.1 µM
[3] = second compound 0.1 µM, first compound 0.0316 µM
[4] = second compound 0.1 µM, first compound 0.1 µM
[5] = second compound 0.316 µM, first compound 0.0316 µM
[6] = second compound 0.316 µM, first compound 0.1 µM
[7] = second compound 1 µM, first compound 0.0316 µM
[8] = second compound 1 µM, first compound 0.1 µM
[9] = second compound 3.16 µM, first compound 0.0316 µM
[10] = second compound 3.16 µM, first compound 0.1 µM
[11] = second compound 10 µM, first compound 0.0316 µM
[12] = second compound 10 µM, first compound 0.1 µM
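Also: spheroids exposed to compounds for seven days before viability reading.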
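For viability, T/C in this document: 100% = DMSO vehicle control viability.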

CC(Cn1ccc(-c2ccc(C#N)c(Cl)c2)n1)NC(=O)c1cc(C(C)O)[nH]n1 (centres undefined) + Cc1nc(NC(=O)N2CCCC2C(N)=O)sc1-c1ccnc(C(C)(C)C(F)(F)F)c1
IC50 (second compound 0.0316 µM): > 10000 nM
IC50 (second compound 0.1 µM): > 10000 nM
IC50 (second compound 0.316 µM): > 10000 nM
IC50 (second compound 1 µM): > 10000 nM
IC50 (second compound 3.16 µM): > 10000 nM
IC50 (second compound 10 µM): < 31.6 nM
viability, T/C [1]: 99.2%
viability, T/C [2]: 96.7%
viability, T/C (second compound 0.0316 µM, first compound 0.316 µM): 98.5%
viability, T/C (second compound 0.0316 µM, first compound 1 µM): 93%
viability, T/C (second compound 0.0316 µM, first compound 3.16 µM): 116%
viability, T/C (second compound 0.0316 µM, first compound 10 µM): 107%
viability, T/C [3]: 112%
viability, T/C [4]: 103%
viability, T/C (second compound 0.1 µM, first compound 0.316 µM): 88.6%
viability, T/C (second compound 0.1 µM, first compound 1 µM): 109%
viability, T/C (second compound 0.1 µM, first compound 3.16 µM): 107%
viability, T/C (second compound 0.1 µM, first compound 10 µM): 122%
viability, T/C [5]: 99.7%
viability, T/C [6]: 97.6%
viability, T/C (second compound 0.316 µM, first compound 0.316 µM): 103%
viability, T/C (second compound 0.316 µM, first compound 1 µM): 116%
viability, T/C (second compound 0.316 µM, first compound 3.16 µM): 105%
viability, T/C (second compound 0.316 µM, first compound 10 µM): 97.5%
viability, T/C [7]: 103%
viability, T/C [8]: 92.8%
viability, T/C (second compound 1 µM, first compound 0.316 µM): 86%
viability, T/C (second compound 1 µM, first compound 1 µM): 97.9%
viability, T/C (second compound 1 µM, first compound 3.16 µM): 86.8%
viability, T/C (second compound 1 µM, first compound 10 µM): 88.3%
viability, T/C [9]: 56.5%
viability, T/C [10]: 60.2%
viability, T/C (second compound 3.16 µM, first compound 0.316 µM): 54.2%
viability, T/C (second compound 3.16 µM, first compound 1 µM): 58.9%
viability, T/C (second compound 3.16 µM, first compound 3.16 µM): 50.7%
viability, T/C (second compound 3.16 µM, first compound 10 µM): 54.8%
viability, T/C [11]: 21.6%
viability, T/C [12]: 14.2%
viability, T/C (second compound 10 µM, first compound 0.316 µM): 18.5%
viability, T/C (second compound 10 µM, first compound 1 µM): 17.1%
viability, T/C (second compound 10 µM, first compound 3.16 µM): 15.8%
viability, T/C (second compound 10 µM, first compound 10 µM): 12.7%

CC(=O)c1c(C)c2cnc(Nc3ccc(N4CCNCC4)cn3)nc2n(C2CCCC2)c1=O + CC(Nc1ncnc2nc[nH]c12)c1cc2cccc(Cl)c2c(=O)n1-c1ccccc1
IC50 (second compound 0.0316 µM): > 100 nM
IC50 (second compound 0.1 µM): > 100 nM
IC50 (second compound 0.316 µM): > 100 nM
IC50 (second compound 1 µM): > 100 nM
IC50 (second compound 3.16 µM): > 100 nM
IC50 (second compound 10 µM): > 100 nM
viability, T/C (second compound 0.0316 µM, first compound 0.000316 µM): 87.2%
viability, T/C (second compound 0.0316 µM, first compound 0.001 µM): 96.8%
viability, T/C (second compound 0.0316 µM, first compound 0.00316 µM): 114%
viability, T/C (second compound 0.0316 µM, first compound 0.01 µM): 97.2%
viability, T/C [1]: 109%
viability, T/C [2]: 113%
viability, T/C (second compound 0.1 µM, first compound 0.000316 µM): 87.2%
viability, T/C (second compound 0.1 µM, first compound 0.001 µM): 91.5%
viability, T/C (second compound 0.1 µM, first compound 0.00316 µM): 99%
viability, T/C (second compound 0.1 µM, first compound 0.01 µM): 96%
viability, T/C [3]: 116%
viability, T/C [4]: 133%
viability, T/C (second compound 0.316 µM, first compound 0.000316 µM): 96.9%
viability, T/C (second compound 0.316 µM, first compound 0.001 µM): 97.2%
viability, T/C (second compound 0.316 µM, first compound 0.00316 µM): 97.7%
viability, T/C (second compound 0.316 µM, first compound 0.01 µM): 107%
viability, T/C [5]: 118%
viability, T/C [6]: 127%
viability, T/C (second compound 1 µM, first compound 0.000316 µM): 96.3%
viability, T/C (second compound 1 µM, first compound 0.001 µM): 96.8%
viability, T/C (second compound 1 µM, first compound 0.00316 µM): 107%
viability, T/C (second compound 1 µM, first compound 0.01 µM): 107%
viability, T/C [7]: 122%
viability, T/C [8]: 118%
viability, T/C (second compound 3.16 µM, first compound 0.000316 µM): 98.2%
viability, T/C (second compound 3.16 µM, first compound 0.001 µM): 104%
viability, T/C (second compound 3.16 µM, first compound 0.00316 µM): 89.1%
viability, T/C (second compound 3.16 µM, first compound 0.01 µM): 110%
viability, T/C [9]: 99.5%
viability, T/C [10]: 119%
viability, T/C (second compound 10 µM, first compound 0.000316 µM): 84%
viability, T/C (second compound 10 µM, first compound 0.001 µM): 93.1%
viability, T/C (second compound 10 µM, first compound 0.00316 µM): 89.7%
viability, T/C (second compound 10 µM, first compound 0.01 µM): 79.3%
viability, T/C [11]: 100%
viability, T/C [12]: 97.9%
